# Results as given in ChEMBL document CHEMBL3259626, “Discovery of the first potent and selective Mycobacterium tuberculosis Zmp1 inhibitor” (Bioorg Med Chem Lett, 2014).
# Columns and labels:
# [1] = Competitive inhibition of full length Mycobacterium tuberculosis recombinant ZMP1 expressed in Escherichia coli BL21(DE3) using MCA-Pro-Leu-Gly-Leu-Dpa-Ala-Arg-NH2 as substrate by sigma plot analysis
# Neprilysin = Neprilysin (Homo sapiens, UniProt P08473); test: Inhibition of human neprilysin by fluorometric analysis
# Neprilysin, sequence (P08473 whole entry): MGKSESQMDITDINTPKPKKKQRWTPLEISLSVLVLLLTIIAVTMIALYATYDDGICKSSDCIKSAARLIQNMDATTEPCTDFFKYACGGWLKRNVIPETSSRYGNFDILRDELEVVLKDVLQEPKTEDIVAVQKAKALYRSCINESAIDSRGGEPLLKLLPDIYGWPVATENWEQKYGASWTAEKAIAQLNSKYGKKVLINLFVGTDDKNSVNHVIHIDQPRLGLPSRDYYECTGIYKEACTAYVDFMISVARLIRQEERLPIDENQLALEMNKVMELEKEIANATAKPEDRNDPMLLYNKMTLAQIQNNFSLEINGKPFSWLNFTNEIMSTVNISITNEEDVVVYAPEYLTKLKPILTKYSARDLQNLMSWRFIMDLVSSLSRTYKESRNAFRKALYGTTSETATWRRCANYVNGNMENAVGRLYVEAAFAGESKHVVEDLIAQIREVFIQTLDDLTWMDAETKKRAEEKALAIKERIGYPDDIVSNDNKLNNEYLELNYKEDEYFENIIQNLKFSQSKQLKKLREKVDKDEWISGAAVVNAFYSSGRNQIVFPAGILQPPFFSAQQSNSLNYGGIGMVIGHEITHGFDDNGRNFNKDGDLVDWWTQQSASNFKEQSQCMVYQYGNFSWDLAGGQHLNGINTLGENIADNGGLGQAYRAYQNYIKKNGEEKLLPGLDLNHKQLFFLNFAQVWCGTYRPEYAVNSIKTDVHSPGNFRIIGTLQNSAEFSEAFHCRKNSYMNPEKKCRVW
# [2] = Selectivity index, ratio of Ki for human neprilysin to Ki for full length Mycobacterium tuberculosis recombinant ZMP1
# [3] = tested on: Mycobacterium tuberculosis; test: Inhibition of full length Mycobacterium tuberculosis recombinant ZMP1 expressed in Escherichia coli BL21(DE3) using MCA-Pro-Leu-Gly-Leu-Dpa-Ala-Arg-NH2 as substrate at 100 uM by fluorometric analysis relative to control
SMILES,Ki [1] [µM],inhibition [3] [%],other results
O=C(O)c1ccc(/C=C2/SC(=S)N([C@H](Cc3ccccc3)C(=O)O)C2=O)cc1,0.094,,Ki (Neprilysin): 25 µM; Ratio Ki [2]: 266
O=C(NC(Cc1ccccc1)C(=O)O)/C(=C/c1cccc([N+](=O)[O-])c1)NC(=O)c1ccco1 (stereo not drawn),,54,
O=C(O)c1ccc(/C=C2/SC(=S)N([C@@H](Cc3ccccc3)C(=O)O)C2=O)cc1,1.7,,Ki (Neprilysin): 37 µM; Ratio Ki [2]: 21.7
COC(=O)c1ccc(/C=C2\SC(=S)N([C@H](Cc3ccccc3)C(=O)O)C2=O)cc1,5.7,,
C=Cc1[nH]c(C(C)NC(=O)c2ccc(=O)n(CC(=O)NCc3ccc(F)cc3)c2)nc1C (stereo not drawn),,16,
O=C1/C(=C\c2ccc(-c3cccc([N+](=O)[O-])c3)o2)SC(=S)N1CCS(=O)(=O)O,32.2,,
O=S(=O)(O)CCCSc1sc2ccc(Cl)cc2[n+]1CCCS(=O)(=O)O,32.9,78,
O=C(O)CN1C(=O)/C(=C2/Sc3ccccc3N2CCCS(=O)(=O)O)SC1=S,4.8,,
O=C(O)CC(C(=O)O)N1C(=O)/C(=C\c2ccc(O)c(O)c2)SC1=S (stereo not drawn),2.7,,
O=C(O)CCC(C(=O)O)N1C(=O)/C(=C\c2ccc(-c3cccc(Cl)c3Cl)o2)SC1=S (stereo not drawn),3.7,,
Cn1c(=O)c2c(nc(SCC(=O)O)n2Cc2ccc(Cl)cc2)n(C)c1=O,,28,
O=C(OCc1ccccc1)c1ccc(/C=C2\SC(=S)N([C@H](Cc3ccccc3)C(=O)O)C2=O)cc1,1.8,,
O=C(O)c1ccc(/C=C2/SC(=S)N(C(Cc3ccccc3)C(=O)O)C2=O)cc1 (racemic),0.39,,
